This data set in a line: Tobramycin release study from CMHA-S/PEGDA films (OPA fluorescence assay). Type of data set: physicochemical. Here is the method:
Tobramycin sulfate (2 mg/film) and tobramycin free base (2 mg/film) were used for this study. As tobramycin absorbs UV weakly, OPA assay and measuring fluorescence were used to calculate cumulative release of tobramycin. Amount of release tobramycin was calculated from standard curve. The accumulated release amount of tobramycin was more than 1 mg (thus more than 50% release) over 7 days.
Drug-loaded films were placed in PBS for the antibiotic release study. The fluid was removed and assayed daily. For tobramycin, detection was performed using an O-phthaldialdehyde (OPA) reagent. OPA, in the presence of reduced sulfhydryl groups, reacts with the primary amine group in tobramycin to form fluorescent moieties. The fluorescence was measured at an excitation wavelength of 360 nm, and an emission wavelength of 460 nm. The amount of released drug was calculated using a standard solution of tobramycin. For moxifloxacin, UV absorption at 293 nm was used to measure the amount of released drug. The amount of released drug was calculated using a standard solution of moxifloxacin. This removed fluid was also used to assess the bactericidal capability of released antibiotic by the disk diffusion method on agar plates seeded with S. aureus and P. aeruginosa measuring zone of inhibition (ZOI). Similar ZOI bacterial work was also performed using the actual films by an outside lab, Analytical Resource Lab (ARL, Salt Lake City, Utah).
Each film contained 40 μg of tobramycin free base. CMHA-S films were made with 3 different crosslinking ratios: 1.5, 2.0, or 2.5. As tobramycin absorbs UV weakly, OPA assay was used to measure fluorescence using low concentrations of tobramycin. The amount of released tobramycin was calculated from a standard curve. The accumulated released amount of tobramycin was more than 20 μg (thus more than 50% release) over 7 days. The release increased continuously up to day 3 and remained unchanged for the different thiol to acrylate ratios.

The record followed here is patent US9782345B2, “Ocular composition and method” (Jade Therapeutics, Inc, priority 2013, dated 2017).

Take `NC[C@H]1O[C@H](O[C@H]2[C@H](O)[C@@H](O[C@H]3O[C@H](CO)[C@@H](O)[C@H](N)[C@H]3O)[C@H](N)C[C@@H]2N)[C@H](N)C[C@@H]1O` [tobramycin]: the “release of tobramycin (share of load)” value was “more than 50%” (40 μg tobramycin free base per film, over 7 days (FIG. 5)) and “more than 50%” (2 mg/film, over 7 days (FIG. 3)). Also, where the note is “40 μg tobramycin free base per film, thiol to acrylate 1.5, 2.0, 2.5, over 7 days (FIG. 5)”, the “accumulated released amount of tobramycin” value is “more than 20 μg”. Further, the “accumulated release amount of tobramycin” value (2 mg/film tobramycin sulfate or free base, thiol to acrylate 1.5 and 2.0, over 7 days (FIG. 3)) is “more than 1 mg”.
